# From the supplement of paper PMC10307832
# Tests used:
# Assay in all cases: relative viability (nuclei count vs DMSO), 5 days (fraction); higher = more cells survive
# Linifanib + Linsitinib = compound: Cc1ccc(F)c(NC(=O)Nc2ccc(-c3cccc4[nH]nc(N)c34)cc2)c1 [Linifanib] + C[C@]1(O)C[C@@H](c2nc(-c3ccc4ccc(-c5ccccc5)nc4c3)c3c(N)nccn32)C1 [Linsitinib] (partner 1 µM)
# Method in brief: (§1)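 One day after seeding in 1536-well plates, lung cancer cell lines were dosed by pin tool. Dosing was either single-drug or a fixed anchor-drug dose plus five library-drug doses (not always all listed) in √10 steps. After 5 days, nuclei were stained in one fix-and-stain step and counted on 4× images, and relative viability is the nuclei count of treated wells over that of vehicle wells, given as the median of duplicate plates.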
# Linifanib + Crizotinib = compound: Cc1ccc(F)c(NC(=O)Nc2ccc(-c3cccc4[nH]nc(N)c34)cc2)c1 [Linifanib] + C[C@@H](Oc1cc(-c2cnn(C3CCNCC3)c2)cnc1N)c1c(Cl)ccc(F)c1Cl [Crizotinib] (partner 1 µM)
# Method in brief: as §1
# Linifanib + Foretinib = compound: Cc1ccc(F)c(NC(=O)Nc2ccc(-c3cccc4[nH]nc(N)c34)cc2)c1 [Linifanib] + COc1cc2c(Oc3ccc(NC(=O)C4(C(=O)Nc5ccc(F)cc5)CC4)cc3F)ccnc2cc1OCCCN1CCOCC1 [Foretinib] (partner 0.25 µM)
# Method in brief: as §1
# Linifanib + Trametinib = compound: Cc1ccc(F)c(NC(=O)Nc2ccc(-c3cccc4[nH]nc(N)c34)cc2)c1 [Linifanib] + CC(=O)Nc1cccc(-n2c(=O)n(C3CC3)c(=O)c3c(Nc4ccc(I)cc4F)n(C)c(=O)c(C)c32)c1 [Trametinib] (partner 0.02 µM)
# Method in brief: as §1
# Linifanib + Phenformin = compound: Cc1ccc(F)c(NC(=O)Nc2ccc(-c3cccc4[nH]nc(N)c34)cc2)c1 [Linifanib] + N=C(N)NC(=N)NCCc1ccccc1 [Phenformin] (partner 250 µM)
# Method in brief: as §1
# Linifanib + Pemetrexed = compound: Cc1ccc(F)c(NC(=O)Nc2ccc(-c3cccc4[nH]nc(N)c34)cc2)c1 [Linifanib] + Nc1nc2[nH]cc(CCc3ccc(C(=O)N[C@@H](CCC(=O)O)C(=O)O)cc3)c2c(=O)[nH]1 [Pemetrexed] (partner 0.2 µM)
# Method in brief: as §1
Cell Line,relative viability (Linifanib + Linsitinib; first compound 0.03162 µM),relative viability (Linifanib + Linsitinib; first compound 0.1 µM),relative viability (Linifanib + Linsitinib; first compound 0.3162 µM),relative viability (Linifanib + Crizotinib; first compound 0.03162 µM),relative viability (Linifanib + Crizotinib; first compound 0.1 µM),relative viability (Linifanib + Crizotinib; first compound 0.3162 µM),relative viability (Linifanib + Foretinib; first compound 0.03162 µM),relative viability (Linifanib + Foretinib; first compound 0.1 µM),relative viability (Linifanib + Foretinib; first compound 0.3162 µM),relative viability (Linifanib + Trametinib; first compound 0.03162 µM),relative viability (Linifanib + Trametinib; first compound 0.1 µM),relative viability (Linifanib + Trametinib; first compound 0.3162 µM),relative viability (Linifanib + Phenformin; first compound 0.03162 µM),relative viability (Linifanib + Phenformin; first compound 0.1 µM),relative viability (Linifanib + Phenformin; first compound 0.3162 µM),relative viability (Linifanib + Pemetrexed; first compound 0.03162 µM),relative viability (Linifanib + Pemetrexed; first compound 0.1 µM),relative viability (Linifanib + Pemetrexed; first compound 0.3162 µM)
NCI-H441,0.528,0.731,0.547,0.715,0.855,0.713,1.08,0.945,1.27,0.457,0.518,0.409,0.854,0.93,0.899,0.274,0.291,0.222
NCI-H460,0.714,1.05,0.773,0.95,1.16,0.909,0.963,1.01,0.95,0.178,0.168,0.146,0.546,0.542,0.489,0.0619,0.0626,0.0566
NCI-H520,1.07,1,0.811,0.799,1.09,0.757,0.741,1.01,0.708,0.673,0.803,0.731,0.493,0.666,0.552,0.629,0.696,0.635
NCI-H596,1.08,0.993,1.06,0.913,0.902,1.05,0.981,0.783,0.907,0.813,0.894,0.749,0.707,0.734,0.899,0.461,0.535,0.555
NCI-H647,1.13,1.06,1.07,0.963,1.12,0.857,1.03,1.23,1.12,0.567,0.526,0.588,0.654,0.441,0.522,0.148,0.153,0.203
NCI-H650,1,1.07,0.851,0.742,0.665,0.73,1,1.03,0.994,0.935,0.967,0.952,0.45,0.449,0.439,0.899,1.15,0.899
NCI-H661,0.505,0.676,0.467,1.12,1.23,0.906,1.07,0.978,0.973,0.577,0.591,0.55,0.288,0.281,0.313,0.932,0.925,0.904
NCI-H838,0.973,1.14,0.901,0.847,0.839,0.841,1.05,1.08,1.02,0.528,0.554,0.521,0.79,0.642,0.542,0.225,0.27,0.244
NCI-H1355,0.843,0.876,0.852,1.04,1.02,1.14,0.994,1.04,0.941,0.407,0.497,0.404,0.449,0.496,0.425,1.07,1.13,1.08
NCI-H1437,1.03,1.14,0.814,1.05,0.849,0.888,1.27,1.25,1.19,0.559,0.618,0.45,0.32,0.296,0.276,0.323,0.339,0.286
NCI-H1651,0.997,1.14,0.9,0.834,0.929,0.831,0.774,1.04,0.66,0.896,0.787,0.787,0.314,0.368,0.309,0.648,0.612,0.561
NCI-H1666,0.66,0.869,0.803,0.971,0.989,0.966,0.923,0.969,0.998,0.851,0.878,0.842,0.577,0.559,0.548,0.943,0.876,0.892
NCI-H1734,0.869,0.925,0.849,0.768,0.834,0.735,0.87,0.989,0.856,0.618,0.693,0.648,0.384,0.454,0.366,0.401,0.447,0.45
NCI-H1755,0.953,1.01,0.999,0.888,0.957,0.841,0.934,0.912,0.902,0.781,0.801,0.831,0.666,0.621,0.571,0.457,0.465,0.474
NCI-H1915,1.12,1.09,1.08,0.9,0.923,0.838,1.08,1.15,1.04,0.279,0.339,0.297,0.368,0.378,0.352,0.588,0.502,0.502
NCI-H1944,1.09,1.17,1.14,1.1,1.12,0.997,0.928,0.889,0.876,0.427,0.416,0.381,0.212,0.205,0.2,0.678,0.705,0.675
NCI-H1975,0.898,0.98,1.02,1,1.02,0.984,0.892,1.01,1.02,0.298,0.525,0.355,0.418,0.433,0.406,0.293,0.317,0.278

Cell Line,relative viability (Linifanib + Linsitinib; first compound 0.03162 µM),relative viability (Linifanib + Linsitinib; first compound 0.1 µM),relative viability (Linifanib + Linsitinib; first compound 0.3162 µM),relative viability (Linifanib + Crizotinib; first compound 0.03162 µM),relative viability (Linifanib + Crizotinib; first compound 0.1 µM),relative viability (Linifanib + Crizotinib; first compound 0.3162 µM),relative viability (Linifanib + Foretinib; first compound 0.03162 µM),relative viability (Linifanib + Foretinib; first compound 0.1 µM),relative viability (Linifanib + Foretinib; first compound 0.3162 µM),relative viability (Linifanib + Trametinib; first compound 0.03162 µM),relative viability (Linifanib + Trametinib; first compound 0.1 µM),relative viability (Linifanib + Trametinib; first compound 0.3162 µM),relative viability (Linifanib + Phenformin; first compound 0.03162 µM),relative viability (Linifanib + Phenformin; first compound 0.1 µM),relative viability (Linifanib + Phenformin; first compound 0.3162 µM),relative viability (Linifanib + Pemetrexed; first compound 0.03162 µM),relative viability (Linifanib + Pemetrexed; first compound 0.1 µM),relative viability (Linifanib + Pemetrexed; first compound 0.3162 µM)
NCI-H1993,0.749,0.691,0.788,1.01,0.932,0.867,0.807,0.88,0.758,0.623,0.593,0.61,0.44,0.514,0.504,0.642,0.627,0.637
NCI-H2009,1.15,1.19,1.13,1.07,1.08,0.526,1.24,1.25,1.15,0.266,0.343,0.274,0.483,0.493,0.459,1.08,0.989,0.917
NCI-H2023,0.681,0.676,0.652,0.679,0.774,0.544,0.807,0.806,0.836,0.538,0.675,0.554,0.398,0.479,0.392,0.259,0.275,0.232
NCI-H2085,0.895,0.913,0.835,0.863,1.03,0.818,0.979,1.12,0.806,0.67,0.503,0.59,0.878,0.786,0.712,0.907,0.942,0.917
NCI-H2087,1.14,1.02,0.764,0.602,1.03,0.655,1.08,1.26,0.993,0.188,0.235,0.195,0.431,0.51,0.431,0.661,0.726,0.529
NCI-H2126,0.696,0.731,0.753,1.03,1.04,0.975,1.22,1.06,1.2,0.584,0.571,0.547,0.557,0.535,0.542,0.713,0.689,0.714
NCI-H2228,0.648,0.705,0.5,0.496,0.508,0.453,1.08,0.889,0.81,0.511,0.719,0.587,0.242,0.296,0.301,0.325,0.355,0.319
NCI-H2347,0.994,0.96,0.954,0.727,0.7,0.812,1.09,1.25,0.782,0.283,0.292,0.264,0.517,0.864,0.298,0.434,0.431,0.425
NCI-H2405,0.886,0.98,0.852,0.855,0.86,0.85,1.06,1.04,1.07,0.599,0.675,0.596,0.396,0.4,0.382,1.06,1.11,1.04
NCI-H3122,0.997,0.986,1.04,0.281,0.263,0.261,0.946,0.965,0.932,0.273,0.251,0.19,0.381,0.399,0.362,0.203,0.201,0.193
PC-3 [JPC-3],0.971,0.903,1,1,1.01,0.986,1.05,0.973,0.993,0.706,0.756,0.659,0.491,0.474,0.442,1.03,1.05,0.94
PC-14,1.01,1.07,0.922,0.919,1,0.793,0.976,0.951,0.914,0.689,0.715,0.666,0.557,0.59,0.491,0.145,0.137,0.129
RERF-LC-KJ,0.888,0.907,0.827,0.833,0.778,0.745,0.796,0.932,0.814,0.871,0.87,0.877,0.404,0.479,0.439,0.502,0.494,0.484
SK-LU-1,0.932,1.02,0.981,1.03,0.958,0.864,0.805,0.816,0.811,0.457,0.745,0.48,0.528,0.622,0.58,0.794,1,0.966
SK-MES-1,1.04,1.12,1.03,1.01,1.03,0.81,0.986,1,0.827,0.528,0.568,0.507,0.704,0.692,0.653,1,0.964,0.962
SW 1573,0.853,0.845,0.743,0.784,0.91,0.74,0.897,1.21,0.843,0.505,0.674,0.563,0.411,0.363,0.438,0.857,0.879,0.777
UMC-11,0.921,1.06,0.911,0.657,0.604,0.598,0.986,1.16,1.04,0.807,0.721,0.774,0.334,0.327,0.326,0.763,0.772,0.787
